According to article PMC12029836, “Phytotoxicity, Cytotoxicity, and Antimicrobial Activity of Triethanolammonium Amino Acids Salts” (Molecules, 2025):
Where “and” joins values, the source holds several entries; their conditions need not be identical. Identical values can stand only once. Like-named read-outs stand apart in the source and are kept apart here.

Experiments:
CaCo-2 = system: CaCo-2; set-up: method as in doi:10.1039/C4TX00079J; conditions: CaCo-2 ref 39; cited from earlier work
NIH/3T3 = system: NIH/3T3; set-up: method as in doi:10.1039/C4TX00079J; conditions: NIH/3T3 ref 39; cited from earlier work
L929 fibroblasts = assay: Mammalian cell cytotoxicity screening, resazurin viability; type: cell-based, mouse
S. aureus ATCC 6538 = assay: Antimicrobial activity, broth microdilution MIC/MBC; type: cell-based, Staphylococcus aureus; conditions: S. aureus ATCC 6538, 24 h at 37 °C, at least 90% growth inhibition; nd—not detected
E. coli ATCC 8739 = assay: as above; type: cell-based, Escherichia coli; conditions: nd—not detected; for MIC (%): E. coli ATCC 8739, 24 h at 37 °C, at least 90% growth inhibition; for MBC (%): E. coli ATCC 8739
C. albicans ATCC 10231 = assay: as above; type: cell-based, Candida albicans; conditions: nd—not detected; for MIC (%): C. albicans ATCC 10231, 24 h at 37 °C, at least 90% growth inhibition
[1] = system: Lepidium sativum L. seeds; conditions: 24 h incubation, mean(±SD), n = 3
[2] = system: Lepidium sativum L. roots; conditions: 24 h incubation, mean(±SD), n = 3
[3] = 0.01% (w/w) compound in the medium
[4] = 0.03% (w/w) compound in the medium
[5] = 0.05% (w/w) compound in the medium
[6] = 0.10% (w/w) compound in the medium
[7] = 0.30% (w/w) compound in the medium
[8] = 0.50% (w/w) compound in the medium
[9] = 1.00% (w/w) compound in the medium
[10] = 2.00% (w/w) compound in the medium
[11] = 3.00% (w/w) compound in the medium
[12] = 4.00% (w/w) compound in the medium
[13] = 5.00% (w/w) compound in the medium

| Compound | ED20 (L929 fibroblasts; 24h exposure) | ED50 (L929 fibroblasts; 24h exposure) | ED80 (L929 fibroblasts; 24h exposure) | MIC (%) (S. aureus ATCC 6538) | MIC (%) (E. coli ATCC 8739) | MBC (%) (E. coli ATCC 8739) | MIC (%) (C. albicans ATCC 10231) | Inhibition of the Lepidium sativum seeds germination (ISG, %) [1, 3] | Inhibition of the Lepidium sativum seeds germination (ISG, %) [1, 4] | Inhibition of the Lepidium sativum seeds germination (ISG, %) [1, 5] | Inhibition of the Lepidium sativum seeds germination (ISG, %) [1, 6] | Inhibition of the Lepidium sativum seeds germination (ISG, %) [1, 7] | Inhibition of the Lepidium sativum seeds germination (ISG, %) [1, 8] | Inhibition of the Lepidium sativum seeds germination (ISG, %) [1, 9] | Inhibition of the Lepidium sativum seeds germination (ISG, %) [1, 10] | Inhibition of the Lepidium sativum seeds germination (ISG, %) [1, 12] | Inhibition of the root growth in pregerminated Lepidium sativum seeds (IRG, %) [2, 3] | Inhibition of the root growth in pregerminated Lepidium sativum seeds (IRG, %) [2, 4] | Inhibition of the root growth in pregerminated Lepidium sativum seeds (IRG, %) [2, 5] | Inhibition of the root growth in pregerminated Lepidium sativum seeds (IRG, %) [2, 7] | other results |
| --- | --- | --- | --- | --- | --- | --- | --- | --- | --- | --- | --- | --- | --- | --- | --- | --- | --- | --- | --- | --- | --- |
| CCCCn1cc[n+](C)c1 [[BMIM][BF4]] |  |  |  |  |  |  |  |  |  |  |  |  |  |  |  |  |  |  |  |  | IC50 (CaCo-2): 11.2 mM; IC50 (NIH/3T3): 11.3 mM |
| CCCCn1cc[n+](C)c1 [[BMIM][PF6]] |  |  |  |  |  |  |  |  |  |  |  |  |  |  |  |  |  |  |  |  | IC50 (CaCo-2): 11.5 mM |
| NCCCC[C@H](N)C(=O)O.OCCN(CCO)CCO [[TEA][Lys]] | 0.23±0.01% | 0.43±0.01% | 0.69±0.02% | 1.88% | 0.94% | 3.75% | 0.94% | 0.0(±0.0) % | 0.0(±0.0) % | 0.0(±0.0) % | 0.0(±0.0) % | 0.0(±0.0) % | 0.0(±0.0) % | 1.9(±0.8) % | 11.5% | 57.7(±3.1) % | 9.2(±1.9) % | 14.6(±2.1) % | 20.0(±1.9) % | 52.7(±1.7) % | ED20 (L929 fibroblasts; 48h exposure): 0.21±0.01%; ED50 (L929 fibroblasts; 48h exposure): 0.33±0.01%; ED80 (L929 fibroblasts; 48h exposure): 0.46±0.01%; Inhibition of the Lepidium sativum seeds germination (ISG, %) [1, 11]: 38.5%; Inhibition of the root growth in pregerminated Lepidium sativum seeds (IRG, %) [2, 6]: 24.5(±1.9) %; Inhibition of the root growth in pregerminated Lepidium sativum seeds (IRG, %) [2, 8]: 62.3(±1.2) %; Inhibition of the root growth in pregerminated Lepidium sativum seeds (IRG, %) [2, 9]: 63.5(±0.9) %; Inhibition of the root growth in pregerminated Lepidium sativum seeds (IRG, %) [2, 10]: 78.9(±0.8) %; Inhibition of the root growth in pregerminated Lepidium sativum seeds (IRG, %) [2, 11]: 84.9(±0.8) %; Inhibition of the root growth in pregerminated Lepidium sativum seeds (IRG, %) [2, 12]: 90.2(±0.6) %; Inhibition of the root growth in pregerminated Lepidium sativum seeds (IRG, %) [2, 13]: 94.9(±0.5) % |
| CCCCn1cc[n+](C)c1 [[BMIM][(L)-Lac]] |  |  |  |  |  |  |  |  |  |  |  |  |  |  |  |  |  |  |  |  | IC50 (CaCo-2): 19.2 mM; IC50 (NIH/3T3): 33.6 mM |
| O=C(O)[C@@H]1CCCN1.OCCN(CCO)CCO [[TEA][Pro]] | 0.32±0.05% | 0.56±0.04% | 0.86±0.14% | 7.50% | 7.50% | 7.50% | 7.50% | 3.7(±0.5) % | 6.5(±0.5) % | 9.3(±0.5) % | 16.7(±0.8) % | 18.5(±0.5) % | 20.4(±1.3) % | 25.9(±1.3) % | 29.6(±0.9) % | 51.9(±0.5) % | 0.0(±0.0) % | 20.7(±2.1) % | 27.3(±2.2) % | 57.5(±1.5) % | ED20 (L929 fibroblasts; 48h exposure): 0.35±0.04%; ED50 (L929 fibroblasts; 48h exposure): 0.64±0.04%; ED80 (L929 fibroblasts; 48h exposure): 1.00±0.13%; Inhibition of the Lepidium sativum seeds germination (ISG, %) [1, 11]: 40.7(±0.5) %; Inhibition of the Lepidium sativum seeds germination (ISG, %) [1, 13]: 79.6(±0.5) %; Inhibition of the root growth in pregerminated Lepidium sativum seeds (IRG, %) [2, 6]: 39.5(±1.9) %; Inhibition of the root growth in pregerminated Lepidium sativum seeds (IRG, %) [2, 8]: 67.7(±1.1) %; Inhibition of the root growth in pregerminated Lepidium sativum seeds (IRG, %) [2, 9]: 74.5(±1.2) %; Inhibition of the root growth in pregerminated Lepidium sativum seeds (IRG, %) [2, 10]: 83.0(±0.7) %; Inhibition of the root growth in pregerminated Lepidium sativum seeds (IRG, %) [2, 11]: 88.2(±0.6) %; Inhibition of the root growth in pregerminated Lepidium sativum seeds (IRG, %) [2, 12]: 90.1(±0.8) %; Inhibition of the root growth in pregerminated Lepidium sativum seeds (IRG, %) [2, 13]: 92.0(±0.7) % |
| NC(CO)C(=O)O.OCCN(CCO)CCO [[TEA][Ser]] | 0.26±0.03% | 0.55±0.04% | 0.98±0.11% | 7.50% | 7.50% | 7.50% | 3.75% | 0.0(±0.0) % | 0.0(±0.0) % | 0.0(±0.0) % | 2.8(±1.7) % | 5.7(±1.3) % | 6.6(±0.9) % | 7.5(±1.7) % | 17.0(±0.5) % | 34.0(±2.6) % | 0.0(±0.0) % and 0% | 0.0(±0.0) % and 0% | 0.0(±0.0) % and 0% | 14.6% | Inhibition of the root growth in pregerminated Lepidium sativum seeds (IRG, %) [2, 8]: 25.3%; Inhibition of the root growth in pregerminated Lepidium sativum seeds (IRG, %) [2, 9]: 70.2(±0.7) %; Inhibition of the root growth in pregerminated Lepidium sativum seeds (IRG, %) [2, 10]: 77.8(±0.6) %; Inhibition of the root growth in pregerminated Lepidium sativum seeds (IRG, %) [2, 11]: 79.5(±0.6) %; Inhibition of the root growth in pregerminated Lepidium sativum seeds (IRG, %) [2, 12]: 81.3(±0.5) %; Inhibition of the root growth in pregerminated Lepidium sativum seeds (IRG, %) [2, 13]: 91.2(±0.4) % |
| CCCCn1cc[n+](C)c1.C[C@H](N)C(=O)[O-] [[BMIM][Ala]] |  |  |  |  |  |  |  |  |  |  |  |  |  |  |  |  |  |  |  |  | IC50 (CaCo-2): 19.3 mM; IC50 (NIH/3T3): 30.2 mM |
| N[C@@H](CC(=O)O)C(=O)O.OCCN(CCO)CCO [[TEA][Asp]] | 0.47±0.03% | 0.66±0.03% | 0.86±0.09% | 15% | 7.50% | 15% | 15% | 0.0(±0.0) % | 0.0(±0.0) % | 0.0(±0.0) % | 0.0(±0.0) % | 0.0(±0.0) % | 0.0(±0.0) % | 0.0(±0.0) % | 0.0(±0.0) % | 16.2(±1.3) % | 0.0(±0.0) % and 0% | 0.0(±0.0) % and 0% | 0.0(±0.0) % and 0% | 9.1% | ED20 (L929 fibroblasts; 48h exposure): 0.30±0.02%; ED50 (L929 fibroblasts; 48h exposure): 0.50±0.01%; ED80 (L929 fibroblasts; 48h exposure): 0.71±0.01%; MBC (%) (C. albicans ATCC 10231; C. albicans ATCC 10231): 15%; Inhibition of the Lepidium sativum seeds germination (ISG, %) [1, 11]: 3.5%; Inhibition of the root growth in pregerminated Lepidium sativum seeds (IRG, %) [2, 6]: 0.0(±0.0) % and 0%; Inhibition of the root growth in pregerminated Lepidium sativum seeds (IRG, %) [2, 8]: 12.9%; Inhibition of the root growth in pregerminated Lepidium sativum seeds (IRG, %) [2, 10]: 43.9(±1.3) %; Inhibition of the root growth in pregerminated Lepidium sativum seeds (IRG, %) [2, 11]: 44.2(±1.0) %; Inhibition of the root growth in pregerminated Lepidium sativum seeds (IRG, %) [2, 12]: 56.3(±1.0) %; Inhibition of the root growth in pregerminated Lepidium sativum seeds (IRG, %) [2, 13]: 68.3% |
| CC(N)C(=O)O.OCCN(CCO)CCO [[TEA][Ala]] | 0.54±0.06% | 0.57±0.04% | 0.59±0.11% | 7.50% | 3.75% | 7.50% | 1.88% | 0.0(±1.2) % | 0.0(±0.8) % | 0.0(±1.2) % | 0.0(±0.8) % | 0.0(±0.5) % | 9.4(±1.4) % | 11.8(±1.6) % | 17.7(±0.8) % | 88.3(±1.3) % | 0.0(±0.0) % | 0.0(±0.0) % | 14.8(±1.5) % | 27.9(±1.2) % | ED20 (L929 fibroblasts; 48h exposure): 0.25±0.03%; ED50 (L929 fibroblasts; 48h exposure): 0.42±0.02%; ED80 (L929 fibroblasts; 48h exposure): 0.63±0.03%; Inhibition of the Lepidium sativum seeds germination (ISG, %) [1, 11]: 64.7(±0.8) %; Inhibition of the Lepidium sativum seeds germination (ISG, %) [1, 13]: 100.0(±0.5) %; Inhibition of the root growth in pregerminated Lepidium sativum seeds (IRG, %) [2, 6]: 19.7(±1.4) %; Inhibition of the root growth in pregerminated Lepidium sativum seeds (IRG, %) [2, 8]: 36.1(±1.2) %; Inhibition of the root growth in pregerminated Lepidium sativum seeds (IRG, %) [2, 9]: 55.2(±0.8) %; Inhibition of the root growth in pregerminated Lepidium sativum seeds (IRG, %) [2, 10]: 67.2(±1.0) %; Inhibition of the root growth in pregerminated Lepidium sativum seeds (IRG, %) [2, 11]: 77.6(±0.6) %; Inhibition of the root growth in pregerminated Lepidium sativum seeds (IRG, %) [2, 12]: 79.3(±0.6) %; Inhibition of the root growth in pregerminated Lepidium sativum seeds (IRG, %) [2, 13]: 89.7(±0.5) % |
